Test: Acute intervention: nutrikinetics of plasma metabolites after ingestion of O. europaea extract (untargeted HPLC-ESI-QTOF-MS)
Procedure: A total of 25 healthy individuals participated, with an average age of 27 ± 9 years and a mean body mass index (BMI) of 23 ± 3 kg/m^2. None of the participants were taking any medications or nutritional supplements nor did they have any chronic diseases or gastrointestinal issues. The sample size was established based on findings from previous bioavailability research.[14] All participants provided informed consent before participating in the study.
The intervention study was carried out at Miguel Hernández University. Following an overnight fast, the volunteers were categorized into the subsequent groups: a subgroup to evaluate the LC leaf extract (n = 8), another for the OE leaf extract (n = 8), and the placebo subgroup (n = 9). This was a double-blind study, in which sample collection and treatment were carried out uniformly across all three subgroups.
Water was provided ad libitum. Prior to the ingestion of the capsule, a nurse inserted a cannula into the ulnar vein of each volunteer’s nondominant arm, and blood samples were drawn into EDTA-coated tubes at baseline (t = 0). Blood samples were then collected at 0.5, 1, 2, 4, 6, 8, and 10 h after the consumption of the 500 mg capsule. Plasma was separated through centrifugation (10 min at 3000 rpm and 4 °C) and stored at −80 °C until further analysis.
Plasma samples were initially treated using a mixture of methanol and ethanol (50:50; v:v) to remove proteins, following previously reported protocols.[19] During the sample treatment, pooled quality controls (pooled-QC) were prepared by combining equal aliquots from each sample. These QC samples were processed by using the same protocols as the experimental biological samples.
A reversed-phase analytical C18 column (Agilent Zorbax Eclipse Plus, 1.8 μm, 4.6 × 150 mm^2) with a protective cartridge with the same packing was used. MS data were acquired in negative ionization mode, operating in full scan across a mass-to-charge ratio (m/z) range of 50–1700. The analytical method used was adapted from that described by Villegas-Aguilar et al.[19]
Metabolite nutrikinetics were studied using PKSolver, an add-in program for pharmacokinetic data analysis in Microsoft Excel. The time to reach the maximum concentration (observed Tmax) was calculated for each significant metabolite. As an untargeted metabolomic approach was used to detect the circulating metabolites, these were not quantified. Therefore, the maximum concentration (Cmax) and area under the curve (AUC) parameters were calculated in a relative way by using the deconvoluted chromatographic areas. […] Statistical differences were determined by unpaired t tests. All p values less than 0.05 were considered statistically significant.

[1] = 0.5 h after O. europaea extract
[2] = human plasma, 500 mg capsule of O. europaea (OE) extract, oral, mean ± SD

| Compound | Cmax: relative maximum plasma level (human, in vivo, po, 500 mg) | observed Tmax: time required to reach Cmax (human, in vivo, po, 500 mg) [h] | mean chromatographic area in plasma, T0.5 (in vivo) | mean chromatographic area in plasma, T1 (in vivo) | mean chromatographic area in plasma, T2 (in vivo) | mean chromatographic area in plasma, T4 (in vivo) | mean chromatographic area in plasma, T6 (in vivo) | mean chromatographic area in plasma, T8 (in vivo) | mean chromatographic area in plasma, T10 (in vivo) | mean chromatographic area in plasma, T0.5 [1] | mean chromatographic area in plasma, T1 (1 h after O. europaea extract) | mean chromatographic area in plasma, T2 (2 h after O. europaea extract) | mean chromatographic area in plasma, T4 (4 h after O. europaea extract) | mean chromatographic area in plasma, T6 (6 h after O. europaea extract) | mean chromatographic area in plasma, T8 (8 h after O. europaea extract) | mean chromatographic area in plasma, T10 (10 h after O. europaea extract) | Cmax: relative maximum plasma level [2] | observed Tmax: time required to reach Cmax [2] [h] |
| --- | --- | --- | --- | --- | --- | --- | --- | --- | --- | --- | --- | --- | --- | --- | --- | --- | --- | --- |
| O=c1cc(-c2ccc(O)cc2)oc2c([C@@H]3O[C@H](CO)[C@@H](O)[C@H](O)[C@H]3O)c(O)c([C@@H]3O[C@H](CO)[C@@H](O)[C@H](O)[C@H]3O)c(O)c12 [vicenin-2] | 137 ± 59 relative chromatographic area | 1 ± 0 | 34 | 137 | 46 | 0 | 0 | 0 | 0 | – | – | – | – | – | – | – | – | – |
| COc1cc(C)cc(OC)c1OC [1,2,3-trimethoxy-5-methyl benzene] | – | – | – | – | – | – | – | – | – | 117 | 221 | 105 | 0 | 0 | 0 | 0 | 221 ± 72 relative chromatographic area | 1 ± 0 |
| COc1cc(CCC(=O)O)ccc1O[C@@H]1O[C@H](C(=O)O)[C@@H](O)[C@H](O)[C@H]1O [dihydroferulic acid 4-O-glucuronide] | 171 ± 110 relative chromatographic area | 2 ± 2 | 74 | 114 | 94 | 113 | 109 | 74 | 41 | – | – | – | – | – | – | – | – | – |
| C=Cc1ccc(O)c(OC)c1 [p-vinylguaiacol] | 184 ± 45 relative chromatographic area | 1 ± 0 | 90 | 184 | 83 | 0 | 0 | 0 | 0 | – | – | – | – | – | – | – | – | – |
| CC(=O)Oc1cc2c(c(C)c1OC(C)=O)CC=C1[C@@]2(C)CC[C@@]2(C)C3C[C@](C)(C(=O)O)CC[C@]3(C)CC[C@]12C (stereo partly drawn) [dihydrocelastryl diacetate] | – | – | – | – | – | – | – | – | – | 0 | 38 | 150 | 163 | 81 | 38 | 20 | 239 ± 78 relative chromatographic area | 3 ± 1 |
| O=C(/C=C/C1=CC(=O)C(=O)C=C1)OC1CC(O)(C(=O)O)CC(O)C1O (stereo not drawn) [chlorogenoquinone] | – | – | – | – | – | – | – | – | – | 181 | 315 | 154 | 12 | 11 | 0 | 0 | 324 ± 7 relative chromatographic area | 0.9 ± 0.2 |
| desoxy elenolic acid | 124 ± 24 relative chromatographic area | 1.1 ± 0.4 | 56 | 123 | 35 | 0 | 0 | 0 | 0 | – | – | – | – | – | – | – | – | – |
| COc1cc(C(=O)O)ccc1OC1OC(C(=O)O)C(O)C(O)C1O (stereo not drawn) [vanillic acid glucuronide] | – | – | – | – | – | – | – | – | – | 0 | 37 | 77 | 63 | 44 | 22 | 0 | 111 ± 48 relative chromatographic area | 4 ± 3 |
| 10-hydroxy-7 -methoxyoleuropein [10-hydroxy-7-methoxyoleuropein isomer 1] | – | – | – | – | – | – | – | – | – | 0 | 61 | 107 | 16 | 0 | 0 | 0 | 107 ± 22 relative chromatographic area | 2 ± 0 |
| OC[C@H]1O[C@@H](OCc2ccoc2)[C@H](O)[C@@H](O)[C@@H]1O (single isomer, unassigned; isomer 1) [3-furanmethanol glucoside isomer 1, 3-furanmethanol glucoside] | – | – | – | – | – | – | – | – | – | 27 | 200 | 184 | 107 | 17 | 0 | 0 | 236 ± 104 relative chromatographic area | 1.6 ± 0.5 |
| hydroxytyrosol sulfate [hydroxytyrosol sulfate isomer 1] | – | – | – | – | – | – | – | – | – | 280 | 323 | 178 | 328 | 118 | 202 | 45 | 593 ± 382 relative chromatographic area | 3 ± 3 |
| oleuropein aglycone glucuronide [oleuropein aglycone glucuronide isomer 1] | 244 ± 128 relative chromatographic area | 0.8 ± 0.2 | 186 | 202 | 29 | 0 | 0 | 0 | 0 | – | – | – | – | – | – | – | – | – |
| C[C@]12CC[C@@H](O[C@@H]3O[C@H](C(=O)O)[C@@H](O)[C@H](O)[C@H]3O)C[C@@H]1CC[C@@H]1[C@@H]2C(=O)C[C@@]2(C)[C@H]1CC[C@]2(O)[C@@H](O)CO [cortolone-3-glucuronide] | – | – | – | – | – | – | – | – | – | 0 | 0 | 0 | 160 | 82 | 63 | 0 | 163 ± 88 relative chromatographic area | 4.4 ± 0.8 |

— publication PMC11544713, “The Application of Untargeted Metabolomic Approaches for the Search of Common Bioavailable Metabolites in Human Plasma Samples from Lippia citriodora and Olea europaea Extracts” (Journal of Agricultural and Food Chemistry, 2024)
